Among the data in article PMC12040169 (PLOS Biology, 2025) are viability values, retold here.

A word on the viability: it is a read-out of living cells in per cent, often relative to untreated cells.

The series can be described thus: in vitro. Particulars: human, hela cells, % viability.

`COCC(=O)N[C@H]1C[C@H]2C(=O)Nc3ccc(Br)cc3C(=O)N2C1` [CBK289357]: the viability at 28.5 h, 10 µM worked out at 97.6%.
`CCCCCC1=NN(C(=O)c2ccccc2Br)C(O)(C(F)(F)F)C1` (centres unmarked) [CBK027223]: the viability at 28.5 h, 10 µM worked out at 104%.
Take `Cc1c(C(=O)O)sc2nc(SCC(=O)NCc3ccccc3)[nH]c(=O)c12` [CBK287609]: the viability at 28.5 h, 10 µM turned out to be 94.2%.
For `O=C(CN1CCOCC1)N1CCN(C(=O)c2ccc(Cl)cc2Cl)CC1` [CBK028992], the viability at 28.5 h, 10 µM was 97.7%.
In the case of `Cc1cccnc1NC(=O)C(C)Oc1ccccc1` (centres unmarked) [CBK268643] it was 90.2%; in that of `CC(C)CCn1c(=O)c(C(=O)Nc2ccccc2S(N)(=O)=O)c(O)c2ccccc21` [CBK262294], 104%; in that of `Cc1cc(Cl)cc(Cl)c1S(=O)(=O)Nc1nc2c(s1)CN(C(=O)N1CCOCC1)CC2` [CBK000931], 92.6%.
For the compound `Cc1ccccc1NC(=O)Cn1c(=O)cnc2ccccc21` [CBK287852], the viability at 28.5 h, 10 µM was determined as 100%.
Take `NNC(=O)COc1ccc(Cl)cc1Cl` [CBK261671]: the viability at 28.5 h, 10 µM stood at 92.6%.
With `O=C(Cc1cccc2ccccc12)Nc1nnc(C2=COCCO2)o1` [CBK287414], the viability at 28.5 h, 10 µM came to 86.6%.
In the case of `CC(=O)Nc1ccc(OC(=O)c2ccc(Br)o2)cc1` [CBK293917] it was 112%.
For the compound `CCn1c(=O)c(C(=O)NCCN2CCCCC2)c(O)c2ccccc21` [CBK261432C], the viability at 28.5 h, 10 µM came out at 97.7%.
Turning to `Cc1[nH]c2ccccc2c1C(=O)CSc1nnc(Cc2cccs2)n1C` [CBK268663], the viability at 28.5 h, 10 µM was found to be 105%.
Regarding `CC(CNCC1CCCO1)COc1cccc(Cl)c1` (centres unmarked) [CBK058789], the viability at 28.5 h, 10 µM turned out to be 96%.
As for `Cc1ccc(C2Nc3ccccc3C3=NCCCN32)o1` (centres unmarked) [CBK284488], the viability at 28.5 h, 10 µM amounted to 103%.
Consider `CCNC(=O)C1(Cc2ccccc2-c2ccccc2C)CCN(C(=O)C2CCCCC2)CC1` [CBK285717], for which the viability at 28.5 h, 10 µM came to 106%.
As to `CC(=O)N(C)c1ncc(Br)cc1C(=O)N(C)C` [CBK076533], the viability at 28.5 h, 10 µM is 97.1%.
For the compound `Cc1ncc([N+](=O)[O-])n1CCSc1nnc(SCc2ccccc2)s1` [CBK264751], the viability at 28.5 h, 10 µM came to 86.4%.
Take `O=c1c(N2CCC(Sc3ccccc3)CC2)nccn1Cc1ccc([N+](=O)[O-])cc1` [CBK153654]: the viability at 28.5 h, 10 µM was 108%.
With `CCN(CC)C(=O)Cn1c(=O)n(Cc2ccco2)c2ncccc21` [CBK284016], the viability at 28.5 h, 10 µM was found to be 109%.
As for `COc1ccccc1NC(=O)CCSc1nc(C)cc(C)n1` [CBK266371], the viability at 28.5 h, 10 µM worked out at 103%.
As for `COc1cccc(CN2CCCC(NC(=O)c3ccccc3Cl)C2)c1` (centres unmarked) [CBK306774], the viability at 28.5 h, 10 µM amounted to 117%.
Take `O=C(C1=C(O)C(=O)N(Cc2cccnc2)C1c1ccc(Cl)cc1Cl)c1ccccc1` (centres unmarked) [CBK263367]: the viability at 28.5 h, 10 µM is 101%.
In the case of `CS(=O)(=O)N1CCc2cc(-c3cc4ccccn4c3)ccc21` [CBK285256] it was 107%.
With `CCOC(=O)C1CCCN1Cc1ccccc1` (centres unmarked) [CBK278278G], the viability at 28.5 h, 10 µM amounted to 95%.
As for `COc1ccc(-c2cc(C(=O)NC(C)c3ccccc3)c3cc(C(C)C)ccc3n2)cc1` (centres unmarked) [CBK294466], the viability at 28.5 h, 10 µM worked out at 101%.
For `CC1CCc2c(sc(NC(=O)c3nc4ncccn4n3)c2C(N)=O)C1` (centres unmarked) [CBK267631], the viability at 28.5 h, 10 µM was 96.3%.
As to `Cc1c(CNc2nnc(C(C)(C)C)o2)cnn1C` [CBK306439], the viability at 28.5 h, 10 µM was 83.5%.
With `O=C(O)C1CCC1C(=O)N1CCN(c2ccc(C(F)(F)F)cn2)CC1` (centres unmarked) [CBK057147], the viability at 28.5 h, 10 µM is 93.7%.
`FC(F)(F)Sc1ccc(COc2cccc3cccnc23)cc1` [CBK002776]: the viability at 28.5 h, 10 µM amounted to 94.5%.
In the case of `COc1ccc(OCc2nc3ccccc3[nH]2)cc1` [CBK261030], the viability at 28.5 h, 10 µM is 94.8%.
As for `O=C(c1ccccc1Cl)N1N=C(c2cccnc2)CC1c1ccccc1O` (centres unmarked) [CBK269182], the viability at 28.5 h, 10 µM was 102%.
For the compound `Cc1ccc(NC(=O)NC(=O)C2CCN(CCc3ccc(F)cc3)CC2)cc1Cl` [CBK035047], the viability at 28.5 h, 10 µM is 89.5%.
Then `NC(CSC12CC3CC(CC(C3)C1)C2)C(=O)O` (centres unmarked) [CBK287219], with 88.2%.
In the case of `CC(C)C(=O)N1CCN(c2ccccc2NC(=O)c2ccc(N3CCCCC3)c([N+](=O)[O-])c2)CC1` [CBK267609], the viability at 28.5 h, 10 µM is 100%.
On to `Cc1cc(C)cc(C(O)CNC2CCN(Cc3cscn3)CC2)c1` (centres unmarked) [CBK304457], for which the viability at 28.5 h, 10 µM was found to be 94.4%.
Turning to `Cc1ccc2nc(N(CCCN(C)C)C(=O)c3ccco3)sc2c1` [CBK287639], the viability at 28.5 h, 10 µM came out at 114%.
For the compound `COc1ccc([C@@]23CC[C@@H](NC(=O)c4ccc(-c5csnn5)cc4)C[C@@H]2N(C)CC3)cc1OC` [CBK074256T], the viability at 28.5 h, 10 µM worked out at 100%.
Then `Cc1cc(C)nc(NC(=O)OCc2cc(C)nc(C)c2)c1` [CBK138231], with 87.9%; and `COc1ccc(-c2cc(C(=O)Nc3ccc(O)cc3)cnc2-c2ccc(F)cc2)cc1` [CBK038026], with 95.5%.
On to `CC(C)(C)OC(=O)N1CCC(CNS(=O)(=O)c2cc(Cl)sc2Cl)CC1` [CBK086018], for which the viability at 28.5 h, 10 µM worked out at 114%.
In the case of `Cc1cc(S(=O)(=O)CC#N)c(C)cc1Cl` [CBK018672] it was 89.2%; in that of `CCOc1ccc2[nH]c(C(=O)NC3CCCOC3)c(C)c2c1` (centres unmarked) [CBK282529], 113%.
On to `COCC(C)NCc1ccccc1C` (centres unmarked) [CBK027852], for which the viability at 28.5 h, 10 µM came to 115%.
Regarding `CC(C)(O)C#Cc1ccc(C(=O)N2CCN(C/C=C/c3ccccc3)CC2)s1` [CBK267007], the viability at 28.5 h, 10 µM stood at 99.5%.
For the compound `COC(=O)c1cccc(N(C)S(=O)(=O)c2sc3ccc(Cl)cc3c2C)c1` [CBK160390], the viability at 28.5 h, 10 µM is 94.1%.
In the case of `CSc1ncc(C(=O)N2CCC(N3CCCC(CO)C3)CC2)c(=O)[nH]1` (centres unmarked) [CBK307338] it was 90.3%.
In the case of `O=C(CNC(=O)C1CC=CCC1C(=O)O)Nc1ccc(N2CCCCCC2)cc1` (centres unmarked) [CBK295603] it was 90.8%.
Then `CN1CCC2(CC1)CN(C(=O)C1CC1)Cc1ccccc1O2` [CBK284967], with 102%.
Turning to `O=C(CNC(=S)NC(=O)c1ccc(Br)o1)c1ccccc1` [CBK265310], the viability at 28.5 h, 10 µM turned out to be 98%.
For `Fc1ccc(CN2CCC(c3n[nH]c4ncccc34)CC2)cc1` [CBK284902], the viability at 28.5 h, 10 µM was 96.2%.
In the case of `O=c1[nH]c(CN2CCCCCCC2)nc2ccccc12` [CBK283205] it was 117%; in that of `CC(=O)Nc1nc(-c2cc3ccccc3oc2=O)cs1` [CBK287312], 106%.
Consider `CCOc1ccccc1NC(=O)c1ccc(CS(=O)(=O)c2ccc(C)cc2)cc1` [CBK268572], for which the viability at 28.5 h, 10 µM is 95.1%.
Turning to `CC1(C)[C@H](Cc2cc(COc3ccccc3)on2)C[C@@H]1NS(C)(=O)=O` [CBK289703], the viability at 28.5 h, 10 µM was 89.5%.
Then `CS(=O)(=O)Nc1cccc(-c2nnn[nH]2)c1` [CBK062150], with 90.4%; and `Cc1nc(SCCn2cccn2)c2c(=O)n(C)c(=O)n(CC(C)C)c2n1` [CBK306321], with 99.1%.
On to `CN1CCN(C(=O)c2ccc(-c3cnc4[nH]c(=O)n(Cc5ccncc5)c4n3)cc2)CC1` [CBK064679], for which the viability at 28.5 h, 10 µM is 101%.
In the case of `CS(=O)(=O)NC1CCN(CCc2ccc(F)c(F)c2)C1` (centres unmarked) [CBK305078] it was 95.3%; in that of `CN1CCOc2ccccc2C(=O)NC/C=C/CC2(CCCNC2)C1=O` (centres unmarked) [CBK292027], 107%.
Then `O=C(Cc1cccc(F)c1)N1C2CCC1CC(O)(c1ccco1)C2` (centres unmarked) [CBK284138], with 95.3%.
Turning to `N#Cc1cccnc1N1CCC(NC(=O)c2cccnc2)CC1` [CBK304283], the viability at 28.5 h, 10 µM came to 103%.
`O=C(CCC1CCCO1)N1CCCC(COc2ccc(F)cc2)C1` (centres unmarked) [CBK282031]: the viability at 28.5 h, 10 µM came out at 97.7%.
Then `O=C(c1ccc(F)cc1)N1C2CCC1CC(O)(c1ccccc1F)C2` (centres unmarked) [CBK121719], with 102%; and `COc1cc(/C=C/c2[nH]c(=O)[nH]c(=O)c2[N+](=O)[O-])cc(Br)c1OCC(=O)O` [CBK267977], with 91.5%.
Consider `COC[C@H]1CCCN1C(=O)Cn1[nH]c(C)c(Cc2c(Cl)cccc2Cl)c1=O` [CBK115407], for which the viability at 28.5 h, 10 µM is 103%.
For `O=C(Nc1cccc(CCc2ccccn2)c1)Nc1cccc2ccccc12` [CBK262337], the viability at 28.5 h, 10 µM is 87.7%.
Turning to `C[C@H](Nc1nccnc1-c1ccsc1)c1ccccc1` [CBK088716], the viability at 28.5 h, 10 µM was determined as 94.9%.
Then `CCC1C(c2ccc(C)cc2)=CCC(C(=O)NCCCN(C)C)C1C` (centres unmarked) [CBK016514], with 79.6%.
Then `CN1CCCCCC1c1nc(-c2c[nH]c3ccccc23)nn1CCO` (centres unmarked) [CBK306988], with 96%; and `COc1ccc(-c2cc(CC3(NC(C)=O)COC3)no2)cc1` [CBK289428], with 94.5%; and `O=C(NC1CCCCC1)NC1CCN(Cc2nnnn2Cc2ccco2)CC1` [CBK085007], with 100%.
In the case of `Nc1nc(OCCc2cccs2)cnc1-c1ccc(OC(F)(F)F)cc1` [CBK145116] it was 92.7%; in that of `Cn1cccc1C(=O)N[C@H]1CCN2C(=O)N(c3cccc(F)c3)C(=O)[C@@H]2C1` [CBK289549], 88.8%.
Consider `C=CCn1c(C)c(CN2CCc3nc(C)[nH]c(=O)c3C2)c2ccccc21` [CBK282375], for which the viability at 28.5 h, 10 µM was 97.3%.
Regarding `CCOC(=O)N1CCC(NC(=O)N2CCN(C3CCN(C)CC3)CC2)CC1` [CBK156113], the viability at 28.5 h, 10 µM turned out to be 92.2%.
In the case of `CCOC(=O)c1[nH]c2ccccc2c1NS(=O)(=O)c1ccc(Br)cc1` [CBK047409] it was 116%; in that of `COc1cc(C2C(C(=O)c3cccs3)=C(O)C(=O)N2Cc2cccnc2)cc(OC)c1OC` (centres unmarked) [CBK264874], 92.8%.
For the compound `N=C1NC(=O)/C(=C/c2ccc(OS(=O)(=O)c3ccc4ccccc4c3)cc2)S1` [CBK263605], the viability at 28.5 h, 10 µM stood at 106%.
`CC(C)(C)c1ccc(-c2cc3ncccc3nc2O)cc1` [CBK081302]: the viability at 28.5 h, 10 µM was 97.1%.
